{"source": "patent US7105517B2", "about": "(priority 2001, dated 2006)", "note": "Values joined by “and” are separate entries in the source; they are usually repeats but may differ in a detail not shown here. Equal values may be shown once.", "data": [{"values": [{"compound": "COc1ccc(-c2cccc(Nc3nccc(-c4sc(N)nc4-c4ccccc4)n3)c2)cc1OC", "melting point": "236 to 237 °C"}, {"compound": "CN1CCN(c2nc(-c3ccccc3)c(-c3ccnc(Nc4ccccc4)n3)s2)CC1", "melting point": "239 to 240 °C"}, {"compound": "Nc1nc(-c2ccccc2)c(-c2ccnc(Nc3cccc(CO)c3)n2)s1", "melting point": "214 to 215 °C"}, {"compound": "Nc1nc(-c2ccccc2)c(-c2ccnc(Nc3cccc(Cl)c3)n2)s1", "melting point": "243 to 245 °C"}, {"compound": "Nc1nc(-c2ccccc2)c(-c2ccnc(Nc3cccc(F)c3)n2)s1", "melting point": "243 to 245 °C"}, {"compound": "Nc1nc(-c2ccccc2)c(-c2ccnc(Nc3ccccc3)n2)s1", "melting point": "244 to 245 °C and 247 to 250 °C"}]}]}
